Data taken from US20250333418A1, “PURINE COMPOUNDS, COMPOSITIONS COMPRISING THEM AND USES THEREOF” (Novo Nordisk A/S, priority 2022, published 2025).

Tests used:
human CB1 receptor [1] = biological target: T1, human CB1 receptor (Homo sapiens, UniProt P21554); experiment: bioSensAll GAPL-Gi2 BRET biosensor assay in HEK293 cells transfected with hCB1; test compound added before EC75-80 of agonist CP55,940 (0.1 nM); type: cell-based; conditions: vs CP55,940 0.1 nM (EC75-80), read-out: CB1 wt Gi2 IC50
T1 construct: expressed in transfected cells; host or cells: HEK293
T1 sequence (P21554 whole entry): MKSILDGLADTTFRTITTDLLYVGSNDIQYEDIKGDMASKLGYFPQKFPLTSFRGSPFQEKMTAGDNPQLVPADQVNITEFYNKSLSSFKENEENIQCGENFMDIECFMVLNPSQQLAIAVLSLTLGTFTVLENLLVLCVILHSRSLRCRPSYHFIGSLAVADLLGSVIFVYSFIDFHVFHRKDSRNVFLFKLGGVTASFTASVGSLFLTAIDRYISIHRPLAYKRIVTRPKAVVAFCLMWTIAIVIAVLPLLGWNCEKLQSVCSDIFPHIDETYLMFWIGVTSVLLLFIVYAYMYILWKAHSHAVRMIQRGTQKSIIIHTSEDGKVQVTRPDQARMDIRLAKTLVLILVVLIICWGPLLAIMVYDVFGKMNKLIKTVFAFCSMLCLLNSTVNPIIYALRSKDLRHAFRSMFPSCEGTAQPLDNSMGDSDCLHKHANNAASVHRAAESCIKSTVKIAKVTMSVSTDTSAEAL
Procedure, shortened: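 Test compounds at 12 doses up to 600 nM preceded a 0.1 nM CP55,940 challenge in hCB1/GAPL-Gi2 HEK293 cells. After overnight 37° C incubation, methoxy e-coelenterazine (2 µM final) was added and the 515/400 nm BRET ratio normalized to positive and negative controls.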

human CB1 receptor [2] = biological target: T1, human CB1 receptor; experiment: bioSensAll β-arrestin2 plasma membrane translocation (+GRK2) BRET biosensor assay in HEK293 cells transfected with hCB1; test compound added before EC75-80 of agonist CP55,940 (100 nM); type: cell-based; conditions: βArrestin2 (+GRK2) BRET biosensor, vs CP55,940 100 nM (EC75-80), read-out: CB1 wt βarr2 IC50
Procedure, shortened: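 HEK293 cells co-transfected with hCB1 and β-arrestin2 PM-translocation BRET biosensor (+GRK2); 48 h post-transfection in HBSS, test compound (0–600 nM, 12 points) added 3–5 min before CP55,940 at 100 nM (EC75-80). Overnight incubation at 37 °C; BRET (515/400 nm) read after 2 µM e-coelenterazine Prolume Purple, standardized to controls.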

CC(C)(O)CNc1nc(N2CCC(C)(C(N)=O)CC2)c2nc(-c3ccccc3Cl)n(-c3ccc(Cl)cc3)c2n1 [Compound 85, 1-[8-(2-chlorophenyl)-9-(4-chlorophenyl)-2-[(2-hydroxy-2-methyl-propyl)amino]purin-6-yl]-4-methyl-piperidine-4-carboxamide]
IC50 (human CB1 receptor [1]): 0.754 nM | IC50 (human CB1 receptor [2]): 6.76 nM

CC(C)Oc1nc(OCC(C)(C)O)nc2c1nc(-c1ccccc1Cl)n2-c1ccc(Cl)cc1 [Compound 86]
IC50 (human CB1 receptor [1]): 1.38 nM | IC50 (human CB1 receptor [2]): 9.49 nM

CC(C)Nc1nc(OCC(C)(C)O)nc2c1nc(-c1ccccc1Cl)n2-c1ccc(Cl)cc1 [Compound 87]
IC50 (human CB1 receptor [1]): 3.1 nM | IC50 (human CB1 receptor [2]): 21.6 nM

CC(C)C(=O)Nc1nc(N2CCC(C)(C#N)CC2)c2nc(-c3ccccc3Cl)n(-c3ccc(Cl)cc3)c2n1 [Compound 89, N-[8-(2-chlorophenyl)-9-(4-chlorophenyl)-6-(4-cyano-4-methyl-1-piperidyl)purin-2-yl]-2-methyl-propanamide]
IC50 (human CB1 receptor [1]): 0.789 nM | IC50 (human CB1 receptor [2]): 2.31 nM

CCN(CCO)c1nc(N2CCC(C)(C(N)=O)CC2)c2nc(-c3ccccc3Cl)n(-c3ccc(Cl)cc3)c2n1 [Compound 90, 1-[8-(2-chlorophenyl)-9-(4-chlorophenyl)-2-[ethyl(2-hydroxyethyl)amino]purin-6-yl]-4-methyl-piperidine-4-carboxamide]
IC50 (human CB1 receptor [1]): 0.52 nM | IC50 (human CB1 receptor [2]): 1.36 nM

CO[C@@H]1CCN(c2nc(N3CCC(C)(C(N)=O)CC3)c3nc(-c4ccccc4Cl)n(-c4ccc(Cl)cc4)c3n2)C1 [Compound 91, 1-[8-(2-chlorophenyl)-9-(4-chlorophenyl)-2-[(3R)-3-methoxypyrrolidin-1-yl]purin-6-yl]-4-methyl-piperidine-4-carboxamide]
IC50 (human CB1 receptor [1]): 0.801 nM | IC50 (human CB1 receptor [2]): 2.56 nM

CO[C@H]1CCN(c2nc(N3CCC(C)(C(N)=O)CC3)c3nc(-c4ccccc4Cl)n(-c4ccc(Cl)cc4)c3n2)C1 [Compound 92, 1-[8-(2-chlorophenyl)-9-(4-chlorophenyl)-2-[(3S)-3-methoxypyrrolidin-1-yl]purin-6-yl]-4-methyl-piperidine-4-carboxamide]
IC50 (human CB1 receptor [1]): 1.71 nM | IC50 (human CB1 receptor [2]): 7.93 nM

CC1(C(N)=O)CCN(c2nc(N3CC[C@@H](O)C3)nc3c2nc(-c2ccccc2Cl)n3-c2ccc(Cl)cc2)CC1 [Compound 93, 1-[8-(2-chlorophenyl)-9-(4-chlorophenyl)-2-[(3R)-3-hydroxypyrrolidin-1-yl]purin-6-yl]-4-methyl-piperidine-4-carboxamide]
IC50 (human CB1 receptor [1]): 0.606 nM | IC50 (human CB1 receptor [2]): 1.43 nM

CC1(C(N)=O)CCN(c2nc(N3CC[C@H](O)C3)nc3c2nc(-c2ccccc2Cl)n3-c2ccc(Cl)cc2)CC1 [Compound 94, 1-[8-(2-chlorophenyl)-9-(4-chlorophenyl)-2-[(3S)-3-hydroxypyrrolidin-1-yl]purin-6-yl]-4-methyl-piperidine-4-carboxamide]
IC50 (human CB1 receptor [1]): 0.82 nM | IC50 (human CB1 receptor [2]): 2.41 nM

CC(C)(O)COc1nc(N2CCC(C)(C(N)=O)CC2)c2nc(-c3ccccc3Cl)n(-c3ccccc3)c2n1 [Compound 95, 1-[8-(2-chlorophenyl)-2-(2-hydroxy-2-methyl-propoxy)-9-phenyl-purin-6-yl]-4-methyl-piperidine-4-carboxamide]
IC50 (human CB1 receptor [1]): 13 nM | IC50 (human CB1 receptor [2]): 72.4 nM

CC(C)N1CCN(c2nc(OCC(C)(C)O)nc3c2nc(-c2ccccc2Cl)n3-c2ccc(Cl)cc2)CC1 [Compound 96]
IC50 (human CB1 receptor [1]): 3.43 nM | IC50 (human CB1 receptor [2]): 5.68 nM

CN(CCO)c1nc(OCC(C)(C)O)nc2c1nc(-c1ccccc1Cl)n2-c1ccc(Cl)cc1 [Compound 97]
IC50 (human CB1 receptor [1]): 25.8 nM | IC50 (human CB1 receptor [2]): 123 nM

CCOc1nc(OCC(C)(C)O)nc2c1nc(-c1ccccc1Cl)n2-c1ccc(Cl)cc1 [Compound 99]
IC50 (human CB1 receptor [1]): 4.51 nM | IC50 (human CB1 receptor [2]): 36.2 nM

CC(C)(O)COc1nc(NCC(N)=O)c2nc(-c3ccccc3Cl)n(-c3ccc(Cl)cc3)c2n1 [Compound 100]
IC50 (human CB1 receptor [1]): > 5000 nM | IC50 (human CB1 receptor [2]): > 5000 nM

CC(C)Oc1nc(OC[C@H](C)O)nc2c1nc(-c1ccccc1Cl)n2-c1ccc(Cl)cc1 [Compound 101]
IC50 (human CB1 receptor [1]): 1.53 nM | IC50 (human CB1 receptor [2]): 16 nM

CN(C)CCNc1nc(N2CCC(C)(C(N)=O)CC2)c2nc(-c3ccccc3Cl)n(-c3ccc(Cl)cc3)c2n1 [Compound 102, 1-[8-(2-chlorophenyl)-9-(4-chlorophenyl)-2-[2-(dimethylamino)ethylamino]purin-6-yl]-4-methyl-piperidine-4-carboxamide]
IC50 (human CB1 receptor [1]): 50 nM | IC50 (human CB1 receptor [2]): 40.1 nM

CC(C)(O)COc1nc(N2CCC(C)(C(N)=O)CC2)c2nc(-c3cccnc3)n(-c3ccc(Cl)cc3)c2n1 [Compound 103, 1-[9-(4-chlorophenyl)-2-(2-hydroxy-2-methyl-propoxy)-8-(3-pyridyl)purin-6-yl]-4-methyl-piperidine-4-carboxamide]
IC50 (human CB1 receptor [1]): 131 nM | IC50 (human CB1 receptor [2]): > 5000 nM

Cc1ncccc1-c1nc2c(N3CCC(C)(C(N)=O)CC3)nc(OCC(C)(C)O)nc2n1-c1ccc(Cl)cc1 [Compound 104, 1-[9-(4-chlorophenyl)-2-(2-hydroxy-2-methyl-propoxy)-8-(2-methyl-3-pyridyl)purin-6-yl]-4-methyl-piperidine-4-carboxamide]
IC50 (human CB1 receptor [1]): 48.8 nM | IC50 (human CB1 receptor [2]): > 5000 nM

Cc1ccncc1-c1nc2c(N3CCC(C)(C(N)=O)CC3)nc(OCC(C)(C)O)nc2n1-c1ccc(Cl)cc1 [Compound 105, 1-[9-(4-chlorophenyl)-2-(2-hydroxy-2-methyl-propoxy)-8-(4-methyl-3-pyridyl)purin-6-yl]-4-methyl-piperidine-4-carboxamide]
IC50 (human CB1 receptor [1]): 17.8 nM | IC50 (human CB1 receptor [2]): 760 nM

CC(C)(O)COc1nc(N2CCC(C)(C(N)=O)CC2)c2nc(-c3ccc(C#N)cc3)n(-c3ccc(Cl)cc3)c2n1 [Compound 106, 1-[9-(4-chlorophenyl)-8-(4-cyanophenyl)-2-(2-hydroxy-2-methyl-propoxy)purin-6-yl]-4-methyl-piperidine-4-carboxamide]
IC50 (human CB1 receptor [1]): 14 nM | IC50 (human CB1 receptor [2]): 50.7 nM

Cc1cc(C#N)ncc1-c1nc2c(N3CCC(C)(C(N)=O)CC3)nc(OCC(C)(C)O)nc2n1-c1ccc(Cl)cc1 [Compound 108, 1-[9-(4-chlorophenyl)-8-(6-cyano-4-methyl-3-pyridyl)-2-(2-hydroxy-2-methyl-propoxy)purin-6-yl]-4-methyl-piperidine-4-carboxamide]
IC50 (human CB1 receptor [1]): 3.51 nM | IC50 (human CB1 receptor [2]): 26.2 nM

CC(C)(O)COc1nc(N2CCC(C)(C(N)=O)CC2)c2nc(-c3ccc(C#N)nc3)n(-c3ccc(Cl)cc3)c2n1 [Compound 109, 1-[9-(4-chlorophenyl)-8-(6-cyano-3-pyridyl)-2-(2-hydroxy-2-methyl-propoxy)purin-6-yl]-4-methyl-piperidine-4-carboxamide]
IC50 (human CB1 receptor [1]): 13.2 nM | IC50 (human CB1 receptor [2]): 61.5 nM

CN(CC(C)(C)O)c1nc(N2CCC(C)(C(N)=O)CC2)c2nc(-c3ccc(C#N)nc3)n(-c3ccc(Cl)cc3)c2n1 [Compound 110, 1-[9-(4-chlorophenyl)-8-(6-cyano-3-pyridyl)-2-[(2-hydroxy-2-methyl-propyl)-methyl-amino]purin-6-yl]-4-methyl-piperidine-4-carboxamide]
IC50 (human CB1 receptor [1]): 6.33 nM | IC50 (human CB1 receptor [2]): 13 nM

CC(C)(O)CNc1nc(N2CCC(C)(C(N)=O)CC2)c2nc(-c3ccc(C#N)nc3)n(-c3ccc(Cl)cc3)c2n1 [Compound 111, 1-[9-(4-chlorophenyl)-8-(6-cyano-3-pyridyl)-2-[(2-hydroxy-2-methyl-propyl)amino]purin-6-yl]-4-methyl-piperidine-4-carboxamide]
IC50 (human CB1 receptor [1]): 18.4 nM | IC50 (human CB1 receptor [2]): 53.7 nM
